Assay results from US9764046B2, “Labeling composition for intraocular tissue, labeling method of intraocular tissue, and screening method” (CANON KABUSHIKI KAISHA, priority 2008, dated 2017).

How the values were obtained:
[1] = system: intraocular tissue (retinal tissue incl. photoreceptor cell layer, vitreous body) of Zebrafish 7-day-old embryo; assay: Staining of intraocular tissue of Zebrafish fry by exposure to staining liquid, ocular tissue section observed by confocal microscope; type: in vivo; details: Zebrafish 7 dpf fry, 1 μg/mL, 1 hour exposure, fixed ocular section
[2] = Excitation and fluorescence wavelengths by fluorescence spectrometer FL4500; type: physicochemical; details: in nm (unit assumed)
[3] = aqueous solution: 10 mg/mL DMSO solution diluted to 1/500 with purified water (Examples 1 to 94)
[4] = values in a chloroform solution (Examples 95 to 106)

SMILES	Stained site [1]	Staining ability [1]	λem (fluorescence wavelength) [2, 3]	λex (excitation wavelength) [2, 3]	λem (fluorescence wavelength) [2, 4]	λex (excitation wavelength) [2, 4]
CCn1c(=C2SC(=S)N(CC(=O)O)C2=O)sc(=Cc2ccc3c(c2)C2CCCC2N3c2ccccc2)c1=O (stereo not shown) [Compound 102]	1	∘	700	590	–	–
O=C(O)CN1C(=O)/C(=C\c2cc(Br)c3c(c2)C2CCCC2N3Cc2ccccc2)SC1=S (stereo not shown) [Compound 56]	–	++	606	486	–	–
CCCCCCCCN1C(=O)S/C(=c2/s/c(=C/c3ccc4c(c3)C3CCCC3N4c3ccccc3)c(=O)n2CC(=O)OCC)C1=O (stereo not shown) [Compound 59]	–	++	625	581	–	–
O=C(O)C[n+]1c(/C=C/c2ccc3c(c2)C2CCCC2N3c2ccccc2)sc2ccccc21.[Br-] (stereo not shown) [Compound 61]	–	++	636	545	–	–
CCN1C(=O)/C(=c2\s/c(=C/c3cc(Br)c4c(c3)C3CCCC3N4Cc3ccccc3)c(=O)n2CC(=O)O)SC1=S (stereo not shown) [Compound 73]	–	++	649	548	–	–
CCOC(=O)Cn1c(=Cc2sc3ccccc3[n+]2C)sc(=Cc2ccc3c(c2)C2CCCC2N3c2ccc(C=C(c3ccccc3)c3ccccc3)cc2)c1=O.[Br-] (stereo not shown) [Compound 84]	2	++	718	599	–	–
CCN1C(=O)/C(=c2\s/c(=C/c3ccc(N(c4ccccc4)c4ccc5c(c4)C(C)(C)c4ccccc4-5)cc3)c(=O)n2CC(=O)O)SC1=S [Compound 32]	–	++	640	558	–	–
COc1ccc(N2c3ccc(/C=C/c4sc5ccccc5[n+]4CCC(=O)O)cc3C3CCCC32)cc1 (stereo not shown) [Compound 77]	–	++	668	583	–	–
CCOc1ccc(Nc2ccc3c4c(cc(=O)n3C)-c3ccccc3C(=O)c24)cc1 [Compound 117]	–	∘	–	–	581	538
CCN(CC)CC.O=S(=O)([O-])CCC[n+]1c(/C=C/C=C2\Sc3ccccc3N2CCCS(=O)(=O)O)sc2ccccc21 [Compound 19]	1	++	576	545	–	–
COC(=O)CCc1ccc(Oc2cc(O)c3c(c2N)C(=O)c2ccccc2C3=O)c(C)c1 [Compound 113]	–	∘	–	–	575	514
COc1ccc2cc(N3c4ccc(/C=C/c5sc6ccccc6[n+]5CC(=O)O)cc4C4CCCC43)ccc2c1.[Br-] (stereo not shown) [Compound 64]	2	++	516	401	–	–
CCN1/C(=C/C=C/c2sc3ccccc3[n+]2CC)Sc2ccccc21.[I-] [Compound 27]	1	++	575	485	–	–
Nc1c(OCCOC(=O)Oc2ccccc2)cc(O)c2c1C(=O)c1ccccc1C2=O [Compound 114]	–	∘	–	–	568	513
C=CCN1C(=O)/C(=C2\S/C(=C/c3ccc4c(c3)C3CCCC3N4c3ccccc3)CN2CC(=O)O)SC1=S (stereo not shown) [Compound 98]	–	∘	690	510	–	–
CCN1C(=S)S/C(=c2/s/c(=C/c3ccc4c(c3)C3CCCC3N4c3ccc(C=C(c4ccccc4)c4ccccc4)cc3)c(=O)n2CC(=O)O)C1=S (stereo not shown) [Compound 79]	–	++	702	567	–	–
CCCCCC(CC)Nc1ccc2c3c(cc(=O)n2C)-c2ccccc2C(=O)c13 (stereo not shown) [Compound 2]	–	+++	553	486	–	–
Cc1ccc(C)c(Nc2ccc3c4c(cc(=O)n3C)-c3ccccc3C(=O)c24)c1 [Compound 121]	–	∘	–	–	609	537

SMILES	Stained site [1]	Staining ability [1]	λem (fluorescence wavelength) [2, 3]	λex (excitation wavelength) [2, 3]	λem (fluorescence wavelength) [2, 4]	λex (excitation wavelength) [2, 4]
CCN1C(=O)S/C(=c2/s/c(=C/c3ccc4c(c3)C3CCCC3N4c3ccccc3)c(=O)n2CC(=O)O)C1=O (stereo not shown) [Compound 55]	–	++	644	502	–	–
COc1ccc2cc(N3c4ccc(/C=C5\C(=O)N(c6ccc(C(=O)O)cc6)N=C5C)cc4C4CCCC43)ccc2c1 (stereo not shown) [Compound 49]	–	++	649	569	–	–
CCN1C=C/C(=C\C=C\c2oc3ccccc3[n+]2CC)c2ccccc21.[I-] [Compound 22]	1	++	620	571	–	–
CCCCc1ccc(Nc2ccc3c4c(cc(=O)n3C)-c3ccccc3C(=O)c24)cc1 [Compound 118]	–	∘	–	–	634	540
CCOC(=O)c1cc(/C=C/C=C/c2sc3ccccc3[n+]2CC(=O)O)c2cccccc1-2.[Br-] [Compound 88]	1	++	503	450	–	–
O=C(O)CCN1C(=O)/C(=C\c2ccc3c(c2)C2CCCC2N3Cc2ccccc2)SC1=S (stereo not shown) [Compound 47]	–	++	611	522	–	–
CCOC(=O)Cn1c(=O)/c(=C\c2ccc3c(c2)C2CCCC2N3c2ccc3cc(OC)ccc3c2)s/c1=C1/SC(=O)N(CC)C1=O (stereo not shown) [Compound 54]	–	++	647	597	–	–
C[n+]1c(C=c2sc(=Cc3ccc4c(c3)C3CCCC3N4c3ccc(C=C(c4ccccc4)c4ccccc4)cc3)c(=O)n2CC(=O)O)sc2ccccc21.[Br-] (stereo not shown) [Compound 101]	1	∘	760	560	–	–
O=C1/C(=C/c2ccc3c(c2)C2CCCC2N3c2ccccc2)Oc2ccc(I)cc21 (stereo not shown) [Compound 107]	–	∘	490	380	–	–
CC1(C)c2ccccc2-c2ccc(N(c3ccccc3)c3ccc(/C=C4/SC(=S)N(CC(=O)O)C4=O)cc3)cc21 [Compound 33]	–	++	628	512	–	–
CCC(/C=C1\Oc2ccc(-c3ccccc3)cc2N1CC)=C\c1oc2ccc(-c3ccccc3)cc2[n+]1CC.[I-] [Compound 17]	1	++	564	459	–	–
C=CCN1C(=O)S/C(=c2/s/c(=C/c3ccc4c(c3)C3CCCC3N4c3ccccc3)c(=O)n2CC(=O)OCC)C1=O (stereo not shown) [Compound 51]	–	++	638	580	–	–
CCN1/C(=C\C=C\C2=[N+](CC)c3ccccc3C23CCCCC3)C2(CCCCC2)c2ccccc21.[I-] [Compound 15]	–	+++	569	496	–	–
Cn1c(=O)cc2c3c(c(NC4CCCCC4)ccc31)C(=O)c1ccccc1-2 [Compound 1]	–	++	619	599	–	–
COc1ccc(N2c3ccc(/C=C4\Oc5ccc(I)cc5C4=O)cc3C3CCCC32)cc1 (stereo not shown) [Compound 108]	–	∘	680	530	–	–
O=C(O)CCN1/C(=C/C2=C(Cl)C(=C/c3sc4ccccc4[n+]3CCC(=O)O)/CCC2)Sc2ccccc21.[I-] [Compound 31]	2	++	664	495	–	–
CSc1cccc(N2c3ccc(/C=C4/SC(=S)N(CC(=O)O)C4=O)cc3C3CCCC32)c1 (stereo not shown) [Compound 103]	–	∘	640	520	–	–
